Legend:
[1] = biological target: T1, human metabotropic glutamate type 2 receptor (hmGlu2) (Homo sapiens, UniProt Q14416); experiment: [3H]DCG-IV saturation binding, hmGlu2 CHO membranes
T1 construct: gene GRM2; full-length receptor, stably expressed in CHO cells (membranes)

[2] = biological target: T2, human 5HT2A receptor (h5HT2A) (Homo sapiens, UniProt P28223); experiment: [3H]ketanserin displacement
T2 construct: gene HTR2A
T2 sequence (P28223 whole entry): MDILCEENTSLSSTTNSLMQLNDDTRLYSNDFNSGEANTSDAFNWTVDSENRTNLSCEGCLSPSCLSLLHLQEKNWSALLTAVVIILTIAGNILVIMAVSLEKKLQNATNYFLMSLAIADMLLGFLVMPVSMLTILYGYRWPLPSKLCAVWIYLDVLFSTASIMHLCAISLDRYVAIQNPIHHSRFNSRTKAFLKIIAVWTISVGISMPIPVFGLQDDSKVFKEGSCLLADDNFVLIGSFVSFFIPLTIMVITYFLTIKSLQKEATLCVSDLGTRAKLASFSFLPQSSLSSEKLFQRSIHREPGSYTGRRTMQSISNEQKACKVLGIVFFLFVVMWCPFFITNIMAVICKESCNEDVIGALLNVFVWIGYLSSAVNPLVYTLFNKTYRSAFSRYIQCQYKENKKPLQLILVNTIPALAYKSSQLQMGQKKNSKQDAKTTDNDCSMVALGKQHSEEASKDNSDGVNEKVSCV

T1 sequence (Q14416 19-872): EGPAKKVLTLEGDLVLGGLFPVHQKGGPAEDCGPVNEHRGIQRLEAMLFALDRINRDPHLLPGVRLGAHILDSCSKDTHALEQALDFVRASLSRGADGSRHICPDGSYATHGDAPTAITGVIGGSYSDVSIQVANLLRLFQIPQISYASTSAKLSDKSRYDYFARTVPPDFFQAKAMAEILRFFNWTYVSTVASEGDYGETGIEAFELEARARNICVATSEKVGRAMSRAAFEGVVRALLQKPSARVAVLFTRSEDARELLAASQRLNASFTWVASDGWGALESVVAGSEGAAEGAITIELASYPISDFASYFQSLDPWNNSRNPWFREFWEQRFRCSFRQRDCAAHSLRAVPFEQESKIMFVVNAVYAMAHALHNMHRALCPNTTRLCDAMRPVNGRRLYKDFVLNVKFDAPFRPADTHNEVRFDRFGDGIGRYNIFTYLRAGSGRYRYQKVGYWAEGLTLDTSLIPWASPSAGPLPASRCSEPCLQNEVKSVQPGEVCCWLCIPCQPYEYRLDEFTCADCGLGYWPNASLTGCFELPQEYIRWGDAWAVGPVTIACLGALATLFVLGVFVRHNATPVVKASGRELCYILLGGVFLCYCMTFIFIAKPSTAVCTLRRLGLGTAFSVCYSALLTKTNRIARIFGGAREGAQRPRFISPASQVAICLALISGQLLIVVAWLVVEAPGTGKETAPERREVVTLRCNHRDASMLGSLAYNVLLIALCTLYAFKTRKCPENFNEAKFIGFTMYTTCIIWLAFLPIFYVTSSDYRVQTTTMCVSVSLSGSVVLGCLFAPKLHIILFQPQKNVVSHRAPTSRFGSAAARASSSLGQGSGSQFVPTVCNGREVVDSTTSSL

SMILES	Kd [1]	IC50 [2]
N[C@H](C(=O)O)C1[C@@H](C(=O)O)[C@@H]1C(=O)O (some centres unmarked) [DCG-IV]	200 nM	–
CCCCn1ccc(N2CCC(c3ccc(O)cc3)CC2)c(Cl)c1=O [JNJ-42159052]	–	102 nM

— paper PMC4317228 (Pharmacology Research & Perspectives, 2014)
